Earlier results as cited in patent US20080260771A1, “PROSTATE DISORDER(S) PHYTO-NUTRACEUTICAL SYNERGISTIC COMPOSITION” (priority 2006, published 2008).

What was measured:
[1] = system: human prostate cancer cells; settings: not in normal prostate epithelial cells
prostate cancer = settings: supranutritional doses of selenium, clinical trials

| Molecule | apoptotic death [1] | reduction of prostate cancer incidence (prostate cancer) [%] | tumor growth and lung metastases (prostate tumor) |
| --- | --- | --- | --- |
| [Se] [Selenium] | induces rapid apoptotic death | 50 | – |
| Vitamin E | – | – | significantly suppressed tumor growth |
